The text below walks through data of patent US20250186396A1, “COMPOSITIONS AND METHODS FOR THE TREATMENT OF GLIOBLASTOMA WITH A DUAL TARGETING ANTI-TUMOR COMPOSITION” (Northwestern University, priority 2023, published 2025).

Molecules are shown by their SMILES.

Test [1] relates to U87, PTEN-KO SF763 cells and 005 GSCs. Put plainly: Proliferation (CFSE) and colony formation assays. The test is classed as cell-based. The following applies: BAPN 200 μM or SR9009 5 μM. As for the experimental part:
Proliferation (CFSE) assay. Cell proliferation was assessed using the CellTrace carboxy fluorescein succinimidyl ester (CFSE) Cell Proliferation Kit (Invitrogen, #C34554). Briefly, 1×10^6 cells were collected and incubated with CFSE working solution (1:1,000) for 20 minutes at 37° C. The staining was stopped by adding complete cell culture media. After washing, cells were cultured for 3 days with or without the treatment of BAPN (Sigma-Aldrich, #B-A3134, 200 μM), or SR9009 (Cayman, #11929, 5 μM) in the dark and used for flow cytometry analysis. The percentage of CFSE positive peaks over the undivided peak (generation 0) was analyzed using FlowJo v10.8.1.
Colony formation assay. 1×10^3 GBM cells were seeded in each well of 6-well plates with or without the treatment of BAPN (Sigma-Aldrich, #B-A3134, 200 μM), or SR9009 (Cayman, #11929, 5 μM). After 7-10 days, cells were fixed and stained with 0.5% crystal violet in 25% methanol for 1 hour. After three times washing by PBS, the plates were scanned, and the colony number was counted using ImageJ.

The subject of a further test is OLFML3. Put plainly: Immunoblots for OLFML3 in GBM cells and GSCs. The following applies: immunoblot. It is filed as cell-based, human and mouse. As for the experimental part: Cell Culture. The GBM cell lines U87, U251, SF763, LN229, and CT2A, as well as 293T cells were cultured in Dulbecco's Modified Eagle's Medium (DMEM; Gibco, #11995-065). The mouse glioma cell line GL261 cells and SIM-A9 microglia were cultured in Dulbecco's Modified Eagle Medium-Ham's F12 medium (Gibco, #10565-018). HMC3 microglia were cultured in Eagle's Minimum Essential Medium (ATCC, #30-2003). THP-1 macrophages were cultured in RPMI 1640 medium (Gibco, #11875093). All cell lines were cultured in the indicated medium containing 10% fetal bovine serum (FBS; Fisher Scientific, #16140071) and 1:100 antibiotic-antimycotic (Gibco, #15140-122), and were purchased from the American Type Culture Collection (ATCC). Human GSCs (GSC23 and GSC7-10) and mouse GBM tumor-derived 005 GSCs and QPP7 GSCs were cultured in neural stem cell (NSC) proliferation media (Millipore, #SCM005) containing 20 ng/mL epidermal growth factor (EGF; PeproTech, #AF-100-15) and basic fibroblast growth factor (bFGF; PeproTech, #100-18B). Human GSCs were gifted by Dr. Frederick F. Lang from the Brain Tumor Center (The University of Texas MD Anderson Cancer Center). 005 GSCs and QPP7 GSCs were provided by Dr. Samuel D. Rabkin (Massachusetts General Hospital) and Dr. Jian Hu (The University of Texas MD Anderson Cancer Center), respectively. PTEN CRISPR KO in SF763 and LN229 cells were generated. […]
On the technique in general: Immunoblotting shows a protein as a band on a membrane.

Consider `N#CCCN` [BAPN, β-aminopropionitrile], for which, in test [1], the GBM cell proliferation entry was “had no such effect”. For the same compound, the “expression of OLFML3” value in the test on OLFML3 (human (U87, PTEN-KO SF763, GSC23, GSC7-10) and mouse (CT2A, 005 GSCs) cells, BAPN at indicated concentrations) is “increased”.

On to `CCOC(=O)N1CCC(CN(Cc2ccc(Cl)cc2)Cc2ccc([N+](=O)[O-])s2)C1` (stereo not shown) [SR9009], for which, in test [1], the GBM cell proliferation entry is on record as “impaired”. Further, the “LOX or P65 inhibition-induced OLFML3 upregulation” value in the test with OLFML3 (U87 and PTEN-KO SF763 cells, SR9009 5 μM with BAPN 200 μM or SC75741 5 μM) was “rescued”.
